# According to BindingDB's records for doi:10.7270/Q2251GJ9 (The Scripps Research Institute Molecular Screening Center, 2007):
# Structures can show the parent of a compound that is named as a salt.
# Target: Sphingosine 1-phosphate receptor 1 (Homo sapiens, UniProt P21453)
# Experiment: S1P1 receptor agonists, dose response, cell-based, agonist mode, 60K MLSMR set (AID 468)
# Conditions: not given
# Sequence of Sphingosine 1-phosphate receptor 1 (P21453 whole entry): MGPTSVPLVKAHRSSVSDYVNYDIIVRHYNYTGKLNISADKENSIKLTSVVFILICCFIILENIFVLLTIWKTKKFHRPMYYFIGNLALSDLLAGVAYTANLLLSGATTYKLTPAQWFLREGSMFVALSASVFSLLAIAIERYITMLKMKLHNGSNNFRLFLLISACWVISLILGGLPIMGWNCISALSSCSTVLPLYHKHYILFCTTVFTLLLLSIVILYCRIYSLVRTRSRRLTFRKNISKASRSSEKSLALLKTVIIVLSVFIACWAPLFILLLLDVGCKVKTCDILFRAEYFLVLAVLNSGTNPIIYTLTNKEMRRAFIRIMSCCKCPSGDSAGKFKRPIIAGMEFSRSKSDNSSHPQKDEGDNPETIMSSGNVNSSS
row,SMILES,EC50 [µM]
1,O=C(Nc1cccc(C(F)(F)F)c1)C1CCCN1S(=O)(=O)c1cccc2cccnc12 (configuration not stated) [1-(8-quinolinylsulfonyl)-N-[3-(trifluoromethyl)phenyl]-2-pyrrolidinecarboxamide],4.74
2,O=C(Nc1ccc(C(F)(F)F)cc1)C1CCCN1S(=O)(=O)c1cccc2cccnc12 (configuration not stated) [1-(8-quinolinylsulfonyl)-N-[4-(trifluoromethyl)phenyl]-2-pyrrolidinecarboxamide],9.86
3,"CCn1nc(-c2ccccc2)nc2c(=O)n(C)c(=O)nc1-2 [1-Ethyl-6-methyl-3-phenyl-1H-pyrimido[5,4-e][1,2,4]triazine-5,7-dione]",3.55
4,"Cc1cc(C(=O)CSc2nnc(-c3ccco3)o2)c(C)n1-c1ccc2c(c1)OCCO2 [1-[1-(2,3-dihydro-1,4-benzodioxin-6-yl)-2,5-dimethyl-3-pyrrolyl]-2-[[5-(2-furanyl)-1,3,4-oxadiazol-2-yl]thio]ethanone]",7.58
5,"Cc1cc(C(=O)CSc2nnnn2C)c(C)n1-c1cccc(F)c1 [1-[1-(3-fluorophenyl)-2,5-dimethyl-3-pyrrolyl]-2-[(1-methyl-5-tetrazolyl)thio]ethanone]",2.23
6,"COc1ccc(-n2c(C)cc(C(=O)CSc3nnc(-c4cccs4)o3)c2C)cc1 [1-[1-(4-methoxyphenyl)-2,5-dimethyl-3-pyrrolyl]-2-[(5-thiophen-2-yl-1,3,4-oxadiazol-2-yl)thio]ethanone]",2.03
7,"Cc1csc(SCC(=O)c2cc(C)n(Cc3cccs3)c2C)n1 [1-[2,5-dimethyl-1-(2-thenyl)pyrrol-3-yl]-2-[(4-methylthiazol-2-yl)thio]ethanone]",6.76
8,"Cc1ccc(-n2c(C)cc(C(=O)CSc3nnnn3C)c2C)cc1 [1-[2,5-dimethyl-1-(4-methylphenyl)-3-pyrrolyl]-2-[(1-methyl-5-tetrazolyl)thio]ethanone]",4.77
9,"Cc1cc(C)n2nc(SCC(=O)c3cc(C)n(-c4cc(C)on4)c3C)nc2n1 [1-[2,5-dimethyl-1-(5-methyl-1,2-oxazol-3-yl)pyrrol-3-yl]-2-[(5,7-dimethyl-[1,2,4]triazolo[1,5-a]pyrimidin-2-yl)sulfanyl]ethanone]",4.18
10,CC(Oc1ccccc1Br)C(=O)N1CCc2ccccc21 (configuration not stated) [1-[2-(2-bromophenoxy)propanoyl]indoline],6.81
11,"Cc1ccc(OCCn2cc(C(=N)NO)c3ccccc32)cc1C [1-[2-(3,4-dimethylphenoxy)ethyl]-N'-hydroxy-1H-indole-3-carboximidamide]",9.82
12,CCOc1ccc(-c2nc(CSCC(=O)N3CCN(c4cccc(OC)c4)CC3)c(C)o2)cc1 [1-[4-(3-methoxyphenyl)piperazino]-2-[(5-methyl-2-p-phenetyl-oxazol-4-yl)methylthio]ethanone],9.02
13,"Cc1nnc(SCC(=O)N2CCC(c3noc4ccc(F)cc34)CC2)s1 [1-[4-(5-fluoranyl-1,2-benzoxazol-3-yl)piperidin-1-yl]-2-[(5-methyl-1,3,4-thiadiazol-2-yl)sulfanyl]ethanone]",4.27
14,"Fc1ccccc1COc1ccc(C=Nn2cnnc2)cc1 [1-[4-[(2-fluorophenyl)methoxy]phenyl]-N-(1,2,4-triazol-4-yl)methanimine]",4.62
15,"Fc1ccc(COc2ccc(C=Nn3cnnc3)cc2)cc1 [1-[4-[(4-fluorophenyl)methoxy]phenyl]-N-(1,2,4-triazol-4-yl)methanimine]",8.28
16,"COc1ccc(C(c2c(O)ccc3ccccc23)N2CCOCC2)c(OC)c1 (configuration not stated) [1-[(2,4-dimethoxyphenyl)-(4-morpholinyl)methyl]-2-naphthalenol]",4.94
17,"Cc1ccc(-c2csc3ncnc(Sc4nnc(CN5CCCCCC5=O)o4)c23)cc1 [1-[[5-[5-(4-methylphenyl)thieno[2,3-d]pyrimidin-4-yl]sulfanyl-1,3,4-oxadiazol-2-yl]methyl]azepan-2-one]",2.35
18,"Nc1nnnn1N=C/C(Br)=C/c1ccccc1 [1-[[(Z)-2-bromanyl-3-phenyl-prop-2-enylidene]amino]-1,2,3,4-tetrazol-5-amine]",> 10
19,"COc1cc2c(cc1OC)C(C)N(C(=O)c1cc3ccccc3o1)CC2 (configuration not stated) [1-benzofuran-2-yl-(6,7-dimethoxy-1-methyl-3,4-dihydro-1H-isoquinolin-2-yl)methanone]",> 95
20,O=C(NCc1ccc2c(c1)OCO2)C1CC(=O)N(C2CCCCCCC2)C1 (configuration not stated) [1-cyclooctyl-5-keto-N-piperonyl-pyrrolidine-3-carboxamide],> 95
21,"Cn1c(-c2c(N)n(C3CCCC3)c3nc4ccccc4nc23)nc2ccccc21 [1-cyclopentyl-3-(1-methyl-2-benzimidazolyl)-2-pyrrolo[3,2-b]quinoxalinamine]",1.15
22,C=CS(=O)(=O)c1ccc(Oc2ccc(S(=O)(=O)C=C)cc2)cc1 [1-ethenylsulfonyl-4-(4-ethenylsulfonylphenoxy)benzene],2.74
23,"CCn1nc(-c2cccs2)nc2c(=O)n(C)c(=O)nc1-2 [1-ethyl-6-methyl-3-thiophen-2-yl-pyrimido[5,4-e][1,2,4]triazine-5,7-dione]",> 10
24,"O=C(c1ccccc1)C(CCC(CN1CCOCC1)C(=O)c1ccccc1)CN1CCOCC1 (configuration not stated) [2,5-bis(4-morpholinylmethyl)-1,6-diphenylhexane-1,6-dione;hydrochloride]",4.8
25,"CCCCc1ccc(C2C(C#N)C(=N)SC(=N)C2C#N)s1 (configuration not stated) [2,6-bis(azanyl)-4-(5-butylthiophen-2-yl)-4H-thiopyran-3,5-dicarbonitrile]",13.4
26,"COCCn1c(C)cc(C(=O)CSc2nc3ccccc3o2)c1C [2-(1,3-benzoxazol-2-ylsulfanyl)-1-[1-(2-methoxyethyl)-2,5-dimethyl-pyrrol-3-yl]ethanone]",> 95
27,"O=C(CSc1nc2ccccc2o1)Nc1ccc(N2CCOCC2)c(Cl)c1 [2-(1,3-benzoxazol-2-ylsulfanyl)-N-(3-chloranyl-4-morpholin-4-yl-phenyl)ethanamide]",1.02
28,"CCCCn1nnnc1SCC(=O)c1ccc(C)c(C)c1 [2-(1-Butyl-1H-tetrazol-5-ylsulfanyl)-1-(3,4-dimethyl-phenyl)-ethanone]",5.96
29,"CCC(C)c1ccc2oc(-c3ccc(NC(=O)Cn4cnc5c(=O)n(C)c(=O)n(C)c54)cc3)nc2c1 (configuration not stated) [2-(2,6-diketo-1,3-dimethyl-purin-9-yl)-N-[4-(5-sec-butyl-1,3-benzoxazol-2-yl)phenyl]acetamide]",2.02
30,"Clc1ccc(OCc2nnc(-c3ccccc3Br)o2)c(Cl)c1 [2-(2-bromophenyl)-5-[(2,4-dichlorophenoxy)methyl]-1,3,4-oxadiazole]",> 95

# Same assay, conditions: inactive by the depositor's call
row,SMILES,EC50 [µM]
1,"O=C(C1CCC1)N1CCc2cc(S(=O)(=O)Nc3ccc4c(c3)OCCO4)ccc21 [1-(cyclobutanecarbonyl)-N-(2,3-dihydro-1,4-benzodioxin-6-yl)-2,3-dihydroindole-5-sulfonamide]",38.9
2,"O=C(C1CC1)N1CCc2cc(S(=O)(=O)NCC3COc4ccccc4O3)ccc21 (configuration not stated) [1-(cyclopropanecarbonyl)-N-(2,3-dihydro-1,4-benzodioxin-3-ylmethyl)-2,3-dihydroindole-5-sulfonamide]",14
3,COc1ccc(-n2c(C)c(C(C)=O)c3cc(O)ccc32)cc1 [1-[1-(4-methoxyphenyl)-2-methyl-5-oxidanyl-indol-3-yl]ethanone],15.6
4,"CCN(CC)c1ccc(-n2c(C)c(C(C)=O)c(C(C)=O)c2C)cc1 [1-[1-[4-(diethylamino)phenyl]-4-ethanoyl-2,5-dimethyl-pyrrol-3-yl]ethanone]",11.4
5,"O=C(NCc1ccco1)C1CCN(C(=O)c2cc3sccc3n2Cc2ccc(Cl)cc2)CC1 [1-[4-(4-chlorobenzyl)thieno[3,2-b]pyrrole-5-carbonyl]-N-(2-furfuryl)isonipecotamide]",10.6
6,"CC(C)(CC(=O)N1CCN(c2ccc(Cl)cc2)CC1)CC1=NS(=O)(=O)c2ccccc2N1 [1-[4-(4-chlorophenyl)-1-piperazinyl]-4-(1,1-dioxo-4H-1,2,4-benzothiadiazin-3-yl)-3,3-dimethyl-1-butanone]",10.5
7,CCCC(=O)c1ccc(N2CCN(C(=O)c3ccccc3Br)CC2)c(F)c1 [1-[4-[4-(2-bromobenzoyl)piperazin-1-yl]-3-fluorophenyl]butan-1-one],11.9
8,CC(=O)c1ccc(N2CCN(c3ccc(C(F)(F)F)cn3)CC2)cc1 [1-[4-[4-[5-(trifluoromethyl)-2-pyridinyl]-1-piperazinyl]phenyl]ethanone],29.4
9,"CC(=O)N1C=CN(C(C)=O)C(c2cn(C)c3ccccc23)C1c1cn(C)c2ccccc12 (configuration not stated) [1-[4-acetyl-2,3-bis(1-methyl-3-indolyl)-2,3-dihydropyrazin-1-yl]ethanone]",26.2
10,"CCc1ccc(-c2nc(CSCC(=O)N3CCN(c4ccccn4)CC3)c(C)o2)cc1 [1-[({[2-(4-ethylphenyl)-5-methyl-1,3-oxazol-4-yl]methyl}thio)acetyl]-4-pyridin-2-ylpiperazine]",11.8
11,"Cc1cccc(-c2nc(CSCC(=O)N3CCN(c4ccccn4)CC3)c(C)o2)c1 [1-[({[5-methyl-2-(3-methylphenyl)-1,3-oxazol-4-yl]methyl}thio)acetyl]-4-pyridin-2-ylpiperazine]",13.6
12,"CC(=O)N1CCCc2cc(S(=O)(=O)NCCC3=CCCCC3)ccc21 [1-acetyl-N-(2-cyclohex-1-en-1-ylethyl)-1,2,3,4-tetrahydroquinoline-6-sulfonamide]",14.5
13,CCCCCn1c(=O)c(C(=O)NCc2ccncc2)c(O)c2ccccc21 [1-amyl-2-hydroxy-4-keto-N-(4-pyridylmethyl)quinoline-3-carboxamide],19.8
14,"Cc1nn(Cc2ccccc2)c(C)c1C(=O)OCC(=O)c1cc(C)n(C2CC2)c1C [1-benzyl-3,5-dimethyl-pyrazole-4-carboxylic acid [2-(1-cyclopropyl-2,5-dimethyl-pyrrol-3-yl)-2-keto-ethyl] ester]",13.9
15,"Cc1nc(C)c(C(=O)Nc2ccc(Oc3ccccc3)cc2)o1 [2,4-dimethyl-N-(4-phenoxyphenyl)-1,3-oxazole-5-carboxamide]",11
16,"CC1CCc2nc(NC(=O)CSc3nc4ccccc4o3)sc2C1 (configuration not stated) [2-(1,3-benzoxazol-2-ylsulfanyl)-N-(6-methyl-4,5,6,7-tetrahydro-1,3-benzothiazol-2-yl)acetamide]",57.8
17,"COc1ccc(-n2c(C)cc(C(=O)COC(=O)Cn3cnc4ccccc43)c2C)cc1 [2-(1-benzimidazolyl)acetic acid [2-[1-(4-methoxyphenyl)-2,5-dimethyl-3-pyrrolyl]-2-oxoethyl] ester]",10.3
